Test results taken from publication PMC12833730, “Discovery of a First‐in‐Class Covalent Allosteric SHP1 Inhibitor with Immunotherapeutic Activity” (Angewandte Chemie (International Ed. in English), 2025).
Entries after “also recorded” stand apart in the source; their conditions may differ. Read-outs that look alike come from different tables or passages of the source.

How the values were obtained:
PTP1B = target: T1, PTP1B (Homo sapiens, UniProt P18031); assay: IC50 after preincubation, DiFMUP phosphatase assay; type: biochemical
T1 construct: PTP1B, residues 1-321; made in house; host or cells: E. coli BL21(DE3)
T1 sequence (P18031 1-321, species assumed): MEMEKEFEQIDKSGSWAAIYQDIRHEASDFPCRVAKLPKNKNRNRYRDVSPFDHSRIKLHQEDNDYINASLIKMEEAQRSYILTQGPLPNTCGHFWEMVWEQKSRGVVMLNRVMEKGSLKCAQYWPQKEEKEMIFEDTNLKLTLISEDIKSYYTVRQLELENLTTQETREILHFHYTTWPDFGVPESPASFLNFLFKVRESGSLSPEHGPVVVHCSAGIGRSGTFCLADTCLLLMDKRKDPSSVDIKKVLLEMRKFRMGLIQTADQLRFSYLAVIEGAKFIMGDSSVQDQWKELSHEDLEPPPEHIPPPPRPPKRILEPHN
Protocol: (§1) To further confirm the time-dependent inhibition and determine the IC50 of acquired hits, repurchased compounds from Enamine were serially diluted in a 96-well plate, followed by the addition of proteins at 200 nM. After 10-minute and 60-minute preincubation, 2 µL of the mixture was transferred into 100 µM 6,8-Difluoro-4-Methylumbelliferyl Phosphate (DiFMUP, Invitrogen, cat# D6567) at a final volume of 200 µL. The reaction was allowed to proceed for 5 minutes and quenched by the addition of 40 µl of a 160 µM solution of bpV(Phen) (Sigma-Aldrich, cat# SML0889). The fluorescence signal was measured using a CLARIOstar Plus Microplate Spectrophotometer (BMG Labtech) using excitation and emission wavelengths of 340 nm and 450 nm, respectively. Data were fitted using Prism GraphPad 10.1.1.

PTPN22 = target: T2, PTPN22 (Homo sapiens, UniProt Q9Y2R2); assay: IC50 after preincubation, DiFMUP phosphatase assay; type: biochemical
T2 construct: LYP/PTPN22, residues 1-294; made in house; host or cells: E. coli BL21(DE3)
T2 sequence (Q9Y2R2 1-294): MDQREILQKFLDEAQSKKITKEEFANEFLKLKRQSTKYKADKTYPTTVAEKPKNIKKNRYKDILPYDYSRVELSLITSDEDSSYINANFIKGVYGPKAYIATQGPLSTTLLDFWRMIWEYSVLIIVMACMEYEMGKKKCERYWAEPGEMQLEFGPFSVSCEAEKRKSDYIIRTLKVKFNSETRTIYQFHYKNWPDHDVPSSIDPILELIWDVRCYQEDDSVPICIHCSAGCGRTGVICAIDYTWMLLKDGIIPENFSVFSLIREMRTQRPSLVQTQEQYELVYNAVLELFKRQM
Protocol: as §1

SHP2 = target: T3, SHP2 (Homo sapiens, UniProt Q06124); assay: IC50 after preincubation, DiFMUP phosphatase assay; type: biochemical
T3 construct: SHP2, residues 224-528; made in house; host or cells: E. coli BL21(DE3)
T3 sequence (Q06124 224-528): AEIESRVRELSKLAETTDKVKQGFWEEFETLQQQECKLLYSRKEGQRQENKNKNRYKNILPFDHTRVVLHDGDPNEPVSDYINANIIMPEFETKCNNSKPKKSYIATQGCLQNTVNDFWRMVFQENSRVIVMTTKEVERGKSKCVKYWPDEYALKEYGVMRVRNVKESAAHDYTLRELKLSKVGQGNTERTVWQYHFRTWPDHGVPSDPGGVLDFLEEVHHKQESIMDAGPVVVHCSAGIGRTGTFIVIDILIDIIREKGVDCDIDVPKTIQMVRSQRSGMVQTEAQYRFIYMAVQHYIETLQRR
Protocol: as §1

SHP1 = target: T4, SHP1 (Homo sapiens, UniProt P29350); assay: Vanadate protection jump-dilution experiment; type: biochemical
T4 construct: SHP1, residues 245-543; made in house; host or cells: E. coli BL21(DE3)
T4 sequence (P29350 245-543): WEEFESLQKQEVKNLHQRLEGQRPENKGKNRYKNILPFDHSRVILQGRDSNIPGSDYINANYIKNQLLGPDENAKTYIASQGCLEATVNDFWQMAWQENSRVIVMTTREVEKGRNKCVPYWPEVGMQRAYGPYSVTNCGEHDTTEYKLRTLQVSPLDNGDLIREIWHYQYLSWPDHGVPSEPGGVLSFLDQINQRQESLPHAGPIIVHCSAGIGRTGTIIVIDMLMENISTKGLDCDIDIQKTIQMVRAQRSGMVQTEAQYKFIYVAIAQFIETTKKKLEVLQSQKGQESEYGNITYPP
Protocol: To further understand the mode of M029 action and ascertain whether M029 binds the SHP1 active site or a yet undefined novel site in SHP1, we performed a vanadate (VO4 ^3−) protection experiment. Vanadate is a reversible and competitive PTP inhibitor,^[ [76], [77] ^] and thus excessive vanadate would be expected to fully occupy the PTP active site and prevent covalent modifications of residues within the active site pocket. In this assay, SHP1 was co‐incubated with 30 µM M029 and 500 µM sodium orthovanadate or vehicle control for 30 min. The SHP1‐inhibitor complex was then rapidly diluted 100‐fold into a buffered solution containing 10 mM pNPP, and immediately, the absorbance at 405 nm was monitored over time to determine the remaining phosphatase activity.

Pharmacokinetics in mice = type: in vivo, C57BL/6 mice; design: AUC: unit not given here
Protocol: Given M029's superb potency, selectivity, and target engagement, we considered that these desirable attributes make it a powerful chemical probe for interrogating the roles of SHP1 in biological processes and a promising lead for further development into an SHP1‐targeted therapy. […] To that end, we determined the pharmacokinetic (PK) properties of M029 in mice by administrating the compound via intraperitoneal (IP), intravenous (IV), and oral (PO) routes at a concentration of 25 mg/kg (Figure S4). […] Importantly, M029 is orally bioavailable. […] Moreover, even with the 25 mg/kg oral gavage, the plasma concentration of M029 was maintained several‐fold higher than its biochemical IC50 and two‐fold above its cellular EC50 for Jurkat T cell activation for at least 1 h duration (Figure S4). These PK properties ensure that adequate M029 compound exposure can be achieved to assess the effect of SHP1 inhibition in vivo.
Figure S4. Pharmacokinetic parameters of M029. Curves of (A) PO, (B) IP, (C) IV dosage of M029 at 25 mg/kg in WT C57BL/6 mice. Results were analyzed using GraphPad Prism 10.4.2. The figure is plotted as average ± standard error of the mean (SEM).
All the in vivo studies were performed under an animal protocol (1511001324) approved by the Institutional Animal Care & Use Committee of Purdue University, in accordance with the recommendations in the Guide for the Care and Use of Laboratory Animals of the National Institutes of Health. For PK study, C57BL6 female mice (25-30g body weight) were injected intraperitoneally, orally, or intravenously with 25 mg/kg M029 dissolved in 0.4 ml saline. Blood samples were collected through the tail vein at the indicated time points after injection. Isoflurane was used as an anesthetic. All blood samples were centrifuged at 1,500 g for 5 minutes, and plasma was separated and stored at –80°C until analysis by a validated method based on reversed-phase liquid chromatography coupled to mass-spectrometric detection (LC/MS) using a previously published procedure.^169 For the MC38 syngeneic tumor study, 12-week-old C57BL6 female mice were injected subcutaneously with […] MC38 cells in the right and left flanks for tumor growth. When tumors reached an average volume of 100 mm^3 mice were tumor size-matched and randomly assigned to different experimental groups for experiments. Four mice with eight tumors were used in each treatment group. Mice were injected orally with saline or 25 or 100 mg/kg M029 daily. Tumor sizes and animal weights were measured twice per week. Tumor volume (mm^3) = (length X width^2)/2. At the end of the experiments, mice were euthanized, and tumors were collected for analysis. Among eight tumors collected from each group, four homogenous samples and […] were prepared for Western blots and histology analysis.

Structure (SMILES) | IC50 (PTP1B; column headed 60 min (c7), read-out: PTP1B IC50, 60 min) [µM] | IC50 (PTPN22; 10-min preincubation, read-out: PTPN22 IC50, 10 min) [µM] | IC50 (PTPN22; 60-min preincubation, read-out: PTPN22 IC50, 60 min) [µM] | IC50 (SHP2; 10-min preincubation, read-out: SHP2 IC50, 10 min) [µM] | IC50 (SHP2; 60-min preincubation, read-out: SHP2 IC50, 60 min) [µM] | IC50 (PTP1B; 60-min preincubation, read-out: 60 min IC50, PTP1B) [µM] | IC50 (PTPN22; 60-min preincubation, read-out: 60 min IC50, PTPN22) [µM] | IC50 (SHP2; 60-min preincubation, read-out: 60 min IC50, SHP2) [µM] | SHP1 protection from inactivation by vanadate (SHP1; 30 µM M029 + 500 µM sodium orthovanadate, 30 min, 100-fold dilution) | residual phosphatase activity after 100-fold jump dilution, compound alone (SHP1; 30 µM M029, 30 min) | duration plasma concentration above biochemical IC50 and two-fold above cellular EC50 (Pharmacokinetics in mice; 25 mg/kg oral gavage) | AUC (Pharmacokinetics in mice; female, C57BL/6, mouse, plasma, 25 mg/kg oral, read-out: AUC, oral) | Cmax (Pharmacokinetics in mice; female, C57BL/6, mouse, plasma, 25 mg/kg oral, read-out: Cmax, oral) [µM] | half-life (Pharmacokinetics in mice; female, C57BL/6, mouse, plasma, 25 mg/kg oral, read-out: t1/2, oral) [min] | AUC (Pharmacokinetics in mice; female, C57BL/6, mouse, plasma, ip, 25 mg/kg intraperitoneal, read-out: area under the curve (AUC), IP) | half-life (Pharmacokinetics in mice; female, C57BL/6, mouse, plasma, ip, 25 mg/kg intraperitoneal, read-out: half-life (t1/2), IP) [min] | Cmax (Pharmacokinetics in mice; female, C57BL/6, mouse, plasma, ip, 25 mg/kg intraperitoneal, read-out: peak plasma concentration (Cmax), IP) [µM] | bioavailability (Pharmacokinetics in mice; female, C57BL/6, mouse, plasma, po, 25 mg/kg, read-out: oral bioavailability (%F)) [%]
O=C(CCl)Nc1ccc(S(=O)(=O)Nc2nccs2)cc1 [Z57117023, 2-chloro-N-(4-(N-(thiazol-2-yl)sulfamoyl)phenyl)acetamide] | > 200 | > 200 | > 200 | > 200 | > 200 | – | – | – | – | – | – | – | – | – | – | – | – | –
N#Cc1ccsc1NS(=O)(=O)c1ccc(NC(=O)CCl)cc1 [M029, 2-Chloro-N-(4-(N-(3-cyanothiophen-2-yl)sulfamoyl)phenyl)acetamide] | – | – | – | – | – | 152 ± 16.6 | 88.6 ± 20.1 | 58.2 ± 4.6 | did not show a significant difference; also recorded: not protected from M029 inactivation | Little residual phosphatase activity | at least 1 h | 1410 | 29.8 ± 7.1 | 38.5 ± 7.6 | 5090 | 36.3 ± 5.7 | 122 ± 28.2 | 18
